Read-outs that look alike come from different tables or passages of the source.
How the values were obtained:
[1] = tested on: Haemonchus concortus und Trichostrongylus colubriformis; experiment: B-5 test on sheep infected with nematodes (worm egg count in faeces); format: in vivo, Schafe; conditions: 0,2 mg/kg, single dose by stomach tube or intraruminal injection; compared with untreated infected sheep
Experimental: Der Wirkstoff wird als Suspension formuliert mit einer Magensonde oder durch Injektion in den Pansen eines Schafes gegeben, das mit Haemonchus concortus und Trychostrongylus colubriformis künstlich infiziert worden ist. Pro Dosis werden 1 bis 3 Tiere verwendet. Jedes Schaf wird nur einmal mit einer einzigen Dosis behandelt, und zwar wahlweise mit 0,5 mg oder 0,2 mg/kg Körpergewicht. Die Evaluierung erfolgt durch Vergleich der Anzahl der vor und nach Behandlung im Kot der Schafe ausgeschiedenen Wurmeier.
Gleichzeitig und gleichartig infizierte aber unbehandelte Schafe dienen als Kontrolle.

[2] = tested on: Meloidogyne incognita; experiment: B-8 soil-nematicidal action against Meloidogyne incognita (tomato plants, root-knot index); format: in vivo; conditions: 0,002 % Aktivsubstanz based on soil volume; after 4 weeks; untreated infected controls = 100 %
Experimental: Eier von Meloidogyne incognita werden in Sand eingemischt. Dieses Gemisch wird dann in 200 ml fassende Tontöpfe eingebracht (5000 Eier pro Topf). Am gleichen Tag wird pro Topf eine 3 Wochen alte Tomatenpflanze gepflanzt und der formulierte Wirkstoff mittels Druckapplikation in die Töpfe hineingegeben (0,002 % Aktivsubstanz bezogen auf das Bodenvolumen). Die eingetopften Pflanzen werden nun bei einer Temperatur von 26±1°C und einer relativen Luftfeuchtigkeit von 60 % in einem Gewächshaus aufgestellt. Nach Ablauf von 4 Wochen erfolgt eine Evaluierung durch Untersuchung der Pflanzen auf Wurzelgallbildung nach dem sogenannten Wurzelgall-Index ("Knot Index")

[3] = tested on: L₁-Larven von Lucilia sericata; experiment: B-3 action against L1 larvae of Lucilia sericata (larval culture medium); format: in vivo; conditions: after 4 days; for mortality at 100 ppm: Lucilia sericata, 96 h, read-out: Wirkung (Mortalitätsrate); for Wirkung (Mortalitätsrate): 100 ppm
Experimental: 1 ml einer wässrigen Suspension der zu prüfenden Aktivsubstanz werden so mit 3 ml eines speziellen Larvenzuchtmediums bei ca. 50°C vermischt, dass ein Homogenisat von wahlweise 250 ppm oder 100 ppm Wirkstoffgehalt entsteht. In jede Reagenzglas-Probe werden ca. 30 Lucilia-Larven (L₁) eingesetzt. Nach 4 Tagen wird die Mortalitätsrate bestimmt. Verbindungen der Formel I aus den Tabellen, wie z.B. die Verbindungen Nr. 2.8, 2.17, 2.31, 2.33, 2.35, 2.43, 2.1, 2.18 und 2.45 erzielten mit 100 ppm eine Wirkung von 100 %.

[4] = tested on: Aphis craccivora; experiment: B-6 contact action on Aphis craccivora (sprayed pea seedlings); format: in vivo; conditions: 12,5 ppm, after 3 days; for mortality at 12.5 ppm: Aphis craccivora, 72 h, read-out: Abtötung
From the text: Erbsenkeimlinge, die mit sämtlichen Entwicklungsstadien der Laus infiziert sind, werden mit einer aus einem Emulsionskonzentrat hergestellten Wirkstofflösung besprüht, die wahlweise 50 ppm, 25 ppm oder 12,5 ppm Wirkstoff enthält. Nach 3 Tagen wird auf mehr als 80 % tote bzw. abgefallene Blattläuse ausgewertet. Nur bei dieser Wirkungshöhe wird ein Präparat als wirksam eingestuft.

[5] = tested on: Boophilus microplus (Biarra-Stamm); experiment: B-4 acaricidal action against Boophilus microplus (injection into engorged female ticks, IR90); format: in vivo; conditions: injection of 1, 0,1 or 0,01 µg per tick; dose of the result not stated
Experimental: Auf einer PVC-Platte wird waagrecht ein Klebstreifen so befestigt, das darauf 10 mit Blut vollgesogene Zecken-Weibchen von Boophilus microplus (Biarra-Stamm) nebeneinander in einer Reihe mit dem Rücken aufgeklebt werden können. Jeder Zecke wird mit einer Injektionsnadel 1 µl einer Flüssigkeit injiziert, die eine 1:1-Mischung von Polyethylenglykol und Aceton darstellt und in der eine bestimmte Wirkstoffmenge von wahlweise 1, 0,1 oder 0,01 µg pro Zecke gelöst ist. Kontrolltiere erhalten eine wirkstofffreie Injektion. Nach der Behandlung werden die Tiere unter Normalbedingungen in einem Insektarium bei ca. 28°C und 80 % relativer Luftfeuchtigkeit gehalten, bis die Eiablage erfolgt und die Larven aus den Eiern der Kontrolltiere geschlüpft sind.
Die Aktivität einer geprüften Substanz wird mit der IR₉₀ bestimmt, d.h. es wird jene Wirkstoffdosis ermittelt, bei der noch nach 30 Tagen 9 von 10 Zeckenweibchen (= 90 %) Eier ablegen, die nicht schlupffähig sind.

[6] = tested on: Aedes aegypti; experiment: B-7 larvicidal action against Aedes aegypti; format: in vivo; conditions: 1,6 ppm; nach einem Tag
Experimental: Auf die Oberfläche von 150 ml Wasser, das sich in einem Behälter befindet, wird soviel einer 0,1 %igen acetonischen Lösung des Wirkstoffes pipettiert, dass Konzentrationen von wahlweise 10 ppm, 3,3 ppm und 1,6 ppm erhalten werden. Nach Verdunsten des Acetons wird der Behälter mit ca. 30-40 3 Tage alten Aedes-Larven beschickt. Nach 1, 2 und 5 Tagen wird die Mortalität geprüft.

[7] = tested on: Spodoptera littoralis; experiment: B-1 insecticidal stomach-poison action on Spodoptera littoralis (sprayed cotton plants); format: in vivo; conditions: Wirkstoffkonzentration 3 ppm; nach 24 Stunden; L1 larvae on sprayed cotton plants
Experimental: Eingetopfte Baumwollpflanzen im 5-Blatt-Stadium werden mit einer acetonisch/wässrigen Versuchslösung besprüht, die 3, 12,5 oder 50 ppm der zu prüfenden Verbindung enthält.
Nach dem Antrocknen des Belags werden die Pflanzen mit ca. 30 Larven (L₁-Stadium) von Spodoptera littoralis besetzt. Pro Versuchsverbindung und pro Test-Spezies verwendet man zwei Pflanzen. Der Versuch wird bei ca. 24°C und 60 % relativer Luftfeuchtigkeit durchgeführt. Auswertungen und Zwischenauswertungen auf moribunde Tiere, Wachstum und Larven und Frassschäden erfolgen nach 24 Stunden, 48 Stunden und 72 Stunden.

[8] = tested on: Dermanyssus gallinae; experiment: B-9 miticidal action against Dermanyssus gallinae; format: in vivo; conditions: for mortality at 100 ppm: Dermanyssus gallinae, 72 h, read-out: Wirkung (Mortalität); for Wirkung (Mortalität): 4320 min
Experimental: 2 bis 3 ml einer Testlösung (100, 10, 1 und 0,1 ppm Aktivsubstanz) werden in einen nach oben offenen Glasbehälter gegeben und ca. 200 Milben in unterschiedlichen Entwicklungsstadien in diesen Behälter eingesetzt. Der Glasbehälter wird mit einem Wattebausch verschlossen und 10 Minuten gleichmässig, bis zur vollständigen Benetzung der Milben geschüttelt. Danach wird der Behälter umgekehrt hingestellt, bis die überschüssige Testlösung von der Watte aufgesogen ist. Der Behälter wird erneut gekehrt und die behandelten […] zur Evaluierung der Wirksamkeit der Testsubstanzen drei Tage unter Laborbedingungen beobachtet, wobei die Mortalität als Massstab für Wirksamkeit herangezogen wird.

[9] = tested on: OP-sensible Tetranychus urticae; experiment: B-2 action against plant-damaging acarids, OP-sensitive Tetranychus urticae (sprayed bean plants); format: in vivo; conditions: Wirkstoffkonzentration 0,4 ppm; evaluated after seven days; all mite stages on bean plants
Experimental: Die Primärblätter von Bohnenpflanzen (Phaseolus vulgaris) werden 16 Stunden vor dem Versuch mit einem durch T. urticae infestierten, aus einer Massenzucht stammenden Blattstück belegt. Die so mit allen Milben-Stadien infestierten Pflanzen werden nach Entfernung des Blattstücks mit einer Versuchslösung bis zur Tropfnässe besprüht, die wahlweise 0,4 ppm oder 1,6 ppm der zu prüfenden Verbindung enthält. Die Temperatur in der Gewächshauskabine beträgt ca. 25°C.
Nach sieben Tagen wird unter dem Binokular auf Prozentsatz mobiler Stadien (Adulte und Nymphen) und auf vorhandene Eier ausgewertet.

[10] = 100 ppm, observed for three days

Row | Molecule | Nematodenbefall (Reduktion der Wurmeier im Kot) [1] | mortality at 100 ppm [3] [%] | mortality at 12.5 ppm [4] [%] | Abtötung sämtlicher Larven [6] | Abtötung [7] | mortality at 100 ppm [8, 10] [%] | further results
1 | CC[C@H]1O[C@]2(CC[C@@H]1C)C[C@@H]1C[C@@H](C/C=C(\C)[C@H](C)[C@@H](C)/C=C/C=C3\CO[C@@H]4[C@H](OC(=O)COC(=O)c5cccc(Cl)c5)C(C)=C[C@@H](C(=O)O1)[C@]34O)O2 [Verbindung 2.44, 5-O-(3-Chlorbenzoyloxy)-acetyl-13β-methyl-milbemycin A₄] | keinen Nematodenbefall |  |  |  |  |  | 
2 | CC[C@H]1O[C@]2(CC[C@@H]1C)C[C@@H]1C[C@@H](C/C=C(\C)[C@H](C)[C@@H](C)/C=C/C=C3\CO[C@@H]4[C@H](OC(=O)Cn5cncn5)C(C)=C[C@@H](C(=O)O1)[C@]34O)O2 [Verbindung 2.33, 5-O-(1,2,4-Triazol-1-yl)-acetyl-13β-methyl-milbemycin A₄] | keinen Nematodenbefall | 100 | 100 | vollständige Abtötung | vollständige Abtötung | 100 | Restbefall (Wurzelgallbildung) [2]: 0-10%; Wirkung (IR₉₀) [5]: sehr gute Wirkung
3 | CC[C@H]1O[C@]2(CC[C@@H]1C)C[C@@H]1C[C@@H](C/C=C(\C)[C@H](CC)[C@@H](C)/C=C/C=C3\CO[C@@H]4[C@H](OC(=O)CCl)C(C)=C[C@@H](C(=O)O1)[C@]34O)O2 [Verbindung 2.45] | keinen Nematodenbefall | 100 |  |  |  |  | 
4 | CC[C@H]1O[C@]2(CC[C@@H]1C)C[C@@H]1C[C@@H](C/C=C(\C)[C@H](C)[C@@H](C)/C=C/C=C3\CO[C@@H]4[C@H](OC(C)=O)C(C)=C[C@@H](C(=O)O1)[C@]34O)O2 [Verbindung 2.1, 5-O-Acetyl-13β-methyl-milbemycin A₄] | keinen Nematodenbefall | 100 |  | vollständige Abtötung |  |  | 
5 | 5-O-(1,2,4-Trizaol-1-yl)acetyl-13β-methyl-milbemycin A₄-Zink(II)-Komplex [Verbindung 2.35] | keinen Nematodenbefall |  |  |  | vollständige Abtötung |  | Wirkung (Mortalitätsrate) [3]: 100%; Abtötung [4]: 100%; Wirkung (Mortalität) [8, 10]: 100%
6 | CC[C@H]1O[C@]2(CC[C@@H]1C)C[C@@H]1C[C@@H](C/C=C(\C)[C@H](C)[C@@H](C)/C=C/C=C3\CO[C@@H]4[C@H](OC(=O)COCOC)C(C)=C[C@@H](C(=O)O1)[C@]34O)O2 [Verbindung 2.48] |  |  |  |  |  | 100 | 
7 | CC[C@H]1O[C@]2(CC[C@@H]1C)C[C@@H]1C[C@@H](C/C=C(\C)[C@H](C)[C@@H](C)/C=C/C=C3\CO[C@@H]4[C@H](OC(=O)CCl)C(C)=C[C@@H](C(=O)O1)[C@]34O)O2 [Verbindung 2.8, 5-O-Chloracetyl-13β-methyl-milbemycin A₄] | keinen Nematodenbefall | 100 | 100 | vollständige Abtötung | vollständige Abtötung | 100 | Wirkung (IR₉₀) [5]: sehr gute Wirkung; Abtötung [9]: vollständige Abtötung
8 | CC[C@H]1O[C@]2(CC[C@@H]1C)C[C@@H]1C[C@@H](C/C=C(\C)[C@H](C)[C@@H](C)/C=C/C=C3\CO[C@@H]4[C@H](OC(=O)COC(C)=O)C(C)=C[C@@H](C(=O)O1)[C@]34O)O2 [Verbindung 2.17, 5-O-Acetoxy-acetyl-13β-methyl-milbemycin A₄] | keinen Nematodenbefall | 100 | 100 | vollständige Abtötung |  | 100 | Restbefall (Wurzelgallbildung) [2]: 0-10%; Abtötung [9]: vollständige Abtötung
9 | CC[C@H]1O[C@]2(CC[C@@H]1C)C[C@@H]1C[C@@H](C/C=C(\C)[C@H](C)[C@@H](C)/C=C/C=C3\CO[C@@H]4[C@H](OC(=O)COC)C(C)=C[C@@H](C(=O)O1)[C@]34O)O2 [Verbindung 2.43, 5-O-Methoxyacetyl-13β-methyl-milbemycin A₄] | keinen Nematodenbefall | 100 | 100 | vollständige Abtötung | vollständige Abtötung |  | Abtötung [9]: vollständige Abtötung
10 | CC[C@H]1O[C@]2(CC[C@@H]1C)C[C@@H]1C[C@@H](C/C=C(\C)[C@H](C)[C@@H](C)/C=C/C=C3\CO[C@@H]4[C@H](OC(=O)COc5ccccc5)C(C)=C[C@@H](C(=O)O1)[C@]34O)O2 [Verbindung 2.53] | keinen Nematodenbefall |  |  |  |  |  | 
11 | CC[C@H]1O[C@]2(CC[C@@H]1C)C[C@@H]1C[C@@H](C/C=C(\C)[C@H](C)[C@@H](C)/C=C/C=C3\CO[C@@H]4[C@H](OC(=O)COS(=O)(=O)c5ccc(C)cc5)C(C)=C[C@@H](C(=O)O1)[C@]34O)O2 [Verbindung 2.55] |  |  |  |  |  |  | mortality at 100 ppm [8]: 100%
12 | 5-O-(3,4-Dihydro-2H-pyran-2-yl)carboxyacetyl-13β-methyl-milbemycin A₄ [Verbindung 2.31] | keinen Nematodenbefall |  |  | vollständige Abtötung |  |  | Wirkung (Mortalitätsrate) [3]: 100%; Wirkung (Mortalität) [8, 10]: 100%
13 | CC[C@H]1O[C@]2(CC[C@@H]1C)C[C@@H]1C[C@@H](C/C=C(\C)[C@H](CC)[C@@H](C)/C=C/C=C3\CO[C@@H]4[C@H](OC(=O)COC(C)=O)C(C)=C[C@@H](C(=O)O1)[C@]34O)O2 [Verbindung 2.18, 5-O-Acetoxy-acetyl-13β-ethyl-milbemycin A₄] | keinen Nematodenbefall | 100 |  | vollständige Abtötung |  |  | Restbefall (Wurzelgallbildung) [2]: 0-10%

From patent EP0236939A1, “Derivatives of 5-acyloxy-13-beta-alkyl milbemicyne against parasites in animals and plants” (CIBA-GEIGY AG, priority 1986, dated 1987)
